Tests used:
healthy male volunteers = experiment: Double blind, placebo controlled, dose titration, once daily multiple oral dose study (Example 2); type: in vivo, human; conditions: for hourly minimum HR (heart rate) change from baseline: FIG. 3
Experimental: A total of 56 healthy male volunteers were enrolled in a double blind, parallel, placebo controlled, dose titration, once daily, multiple oral dose study. 53 (95%) subjects completed the study.
Increasing doses of 2-amino-2-[4-(3-benzyloxyphenylthio)-2-chlorophenyl]ethyl-propane-1,3-diol (Compound A) starting at 0.3 mg o.d. or 0.5 mg o.d. and ending at the maximal therapeutic dose of 2 mg o.d. were administered to the subjects as specified in Table 1 below.
Each subject participated in a maximal 21-day Screening period, a Baseline period (Day −2), Run-in period (Day −1), a 21-day treatment period, 14-day Follow up period (with a Follow up visit on Day 35) and study completion assessments on Day 42. Subjects were assigned to one of the four groups (#1 or #2 dose titration group, placebo- or fixed-dose group) and received the once daily (o.d.) treatment in a double blinded manner.
On Day -1 (Run-in), all subjects received placebo and underwent baseline assessments including 24 hour Holter monitoring.
All the study drugs were administered between 8:00 and 8:30, immediately after modest breakfast started 30 min prior to dosing. Dosing was performed as closely as practically possible between the subjects (e.g. within 15 min).
The primary variable, the daily number of bradycardia episodes as defined in the primary objective, were modeled by means of a repeated Poisson model adjusted for the number of bradycardia episodes at Baseline, the day, the treatment, and the treatment-by-day interaction. Generalized Estimating Equations were used to estimate the parameters of the model, including the mean (and 95% CI) number of bradycardia episodes for each treatment group on each day.
The primary objective of the study was assessed from the estimated ratio, obtained from the model above, between the mean number of bradycardia episodes on each ‘dose increase day’ in each titration regimen versus the mean number of bradycardia episodes on Day 1 in the fixed-dose group, and from the 95% CI for this ratio.
The treatment effect in term of other measures of bradycardia, including the change from baseline in hourly (daily) minimum and mean heart rates, was also investigated using an appropriate model.

healthy subjects [1] = experiment: Multiple ascending dose study in healthy subjects: blood lymphocyte levels; type: in vivo, human
Experimental: For example in tests on healthy subjects, the maximum percent decrease (geometric mean, 95% confidence interval) from pre-dose blood lymphocyte levels during once daily dosing of compound A for 14 days (28 days for the 2 mg dose level) in healthy subjects was 39% for 0.3 mg, 65% for 0.6 mg, 74% for 1.2 mg, 83% for 2 mg and 77% for 3 mg. The corresponding reduction in the placebo group was 29%, which may be explained by the normal lymphocyte level variability and the definition of the endpoint.
(§1) Multiple ascending doses of compound A were investigated in healthy subjects. 60 subjects in 5 cohorts (12 subjects per cohort) were dosed at 0.3 mg, 0.6 mg, 1.2 mg and 3 mg once daily for 14 days and at 2 mg for 28 days. In each cohort, subjects were randomised between compound A (9 subjects) and placebo (3 subjects).

healthy subjects [2] = experiment: Multiple ascending dose study in healthy subjects: effect on heart rate (Example 1); type: in vivo, human; conditions: 0.3, 0.6, 1.2, 2 and 3 mg once daily, hourly average heart rate, FIG. 1
Experimental: The effect on heart rate of 2-amino-2-[4-(3-benzyloxyphenylthio)-2-chlorophenyl]ethyl propane-1,3-diol (Compound A, or KRP203) was measured in healthy subjects over a period of 28 days and compared to placebo.
as §1
The day 28 graphic compares placebo and 2 mg dose.

healthy subjects [3] = conditions: 1.25 mg of FTY720; cited from earlier work

Structure (SMILES)	hourly minimum HR (heart rate) change from baseline (healthy male volunteers; after Day 13, all subjects)	safety and tolerability (healthy male volunteers; both titration regimens)	AE (adverse events) profile (healthy male volunteers; dose titration groups versus placebo)	hourly minimum HR (heart rate) change from baseline (healthy male volunteers; fixed dose regimen 2 mg o.d.)	number of bradycardia episodes per day (healthy male volunteers; titration regimens T#1 and T#2 versus fixed dose 2 mg day 1, FIG. 2)	SAEs (severe adverse events) (healthy male volunteers; titration study, 21-day treatment)	maximum percent decrease (geometric mean) from pre-dose blood lymphocyte levels (healthy subjects [1]; 0.3 mg once daily for 14 days)	maximum percent decrease (geometric mean) from pre-dose blood lymphocyte levels (healthy subjects [1]; 0.6 mg once daily for 14 days)	maximum percent decrease (geometric mean) from pre-dose blood lymphocyte levels (healthy subjects [1]; 1.2 mg once daily for 14 days)	maximum percent decrease (geometric mean) from pre-dose blood lymphocyte levels (healthy subjects [1]; 2 mg once daily for 28 days)	maximum percent decrease (geometric mean) from pre-dose blood lymphocyte levels (healthy subjects [1]; 3 mg once daily for 14 days)	decrease in heart rate following dosing (healthy subjects [2])	decrease in heart rate (healthy subjects [3])
NC(CO)(CO)CCc1ccc(Sc2cccc(OCc3ccccc3)c2)cc1Cl [Compound A, 2-amino-2-[4-(3-benzyloxyphenylthio)-2-chlorophenyl]ethyl-propane-1,3-diol]	no decrease in HR compared to matched baseline	safe and well tolerated	No discernable difference	maximum decrease in HR on Days 1 & 2 compared to the 2 titration regimens and resolved by day 5	Both titration regimens had less bradycardic episodes compared to fixed dose day 1	No SAEs (severe adverse events) were reported	39%	65%	74%	83%	77%	observed to increase with increasing dosage	–
CCCCCCCCc1ccc(CCC(N)(CO)CO)cc1 [FTY720]	–	–	–	–	–	–	–	–	–	–	–	–	approximately 8 beats/min

Source: US20180161290A1, “Dosage Regimen of Diaryl Sulfide Derivatives” (Novartis AG, priority 2010, published 2018)
